Reference: US5952511A, “Indolin-2-one derivatives” (Chugai Seiyaku Kabushiki Kaisha, priority 1993, dated 1999)
pIC50: −log10 of the molar value.

Assays:
gastric acid secretion = assay: Inhibitory Activity on Gastric Acid Secretion in Pylorus Ligated Rats (Test Example 2); assay type: in vivo, rat (Sprague-Dawley, male); conditions: Rattus norvegicus, intraduodenal, 10 mg/kg, i.d., 4 h
Procedure: Inhibitory Activity on Gastric Acid Secretion in Pyrolus Ligated Rats
Sprague-Dawley male rats weighing about 200 g were deprived of food for 24 hours while allowed water ad libitum. The abdomen was opened under anesthesia with ethyl ether, the pyrolus ligated, and the abdomen closed. The rats were deprived of food and water for 4 hours until they were surcrified with ethyl ether. The stomach was removed, and gastric juice was collected and measured. The gastric juice was centrifuged at 3000 rpm, and the supernatant was titrated up to pH 7.0 with 0.1N NaOH solution to obtain the acidity of the gastric juice. The amount of the gastric acid output was calculated by multiplying the gastric juice volume by the acidity, and the percent inhibition of acid secretion was obtained according to the following equation. A test compound, suspended in a 3% gum arabic solution, was administered intraduodenally at a dose of 2 ml/kg immediately after the pyrolus ligation.
Inhibition (%)=[(Average amount of gastric acid output in control group--Average amount of gastric acid output in test group)/Average amount of gastric acid secreted […]]×100

[1] = molecular target: T1, CCK-B receptors (rat cerebral cortex) (Rattus norvegicus, UniProt P30553); assay: CCK-B Receptor Binding Test in Rat Cerebral Cortex (Test Example 3); design: species or system rat (Sprague-Dawley, male); conditions: inhibition of specific 125I-CCK-8 sulfated binding (15 pM), 25° C., 120 min
T1 construct: Cerebral cortex was minced in the same buffer, and homogenized with Polytron; from tissue; host or cells: cerebral cortex membrane fraction of Sprague-Dawley male rats
T1 sequence (P30553 1-452): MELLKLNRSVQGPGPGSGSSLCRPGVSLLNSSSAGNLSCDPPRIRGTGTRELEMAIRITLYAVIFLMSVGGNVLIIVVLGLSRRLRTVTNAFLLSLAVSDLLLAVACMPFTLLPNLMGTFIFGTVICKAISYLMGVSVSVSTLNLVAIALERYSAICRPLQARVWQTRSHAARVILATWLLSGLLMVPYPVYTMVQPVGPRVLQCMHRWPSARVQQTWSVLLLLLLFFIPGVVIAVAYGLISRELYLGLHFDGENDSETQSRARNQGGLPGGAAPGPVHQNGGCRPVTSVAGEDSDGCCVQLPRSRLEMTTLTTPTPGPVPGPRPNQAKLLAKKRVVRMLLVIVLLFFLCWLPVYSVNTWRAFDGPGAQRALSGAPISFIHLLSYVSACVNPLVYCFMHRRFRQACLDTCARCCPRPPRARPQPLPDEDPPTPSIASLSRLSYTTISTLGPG
Procedure: CCK-B Receptor Binding Test in Rat Cerebral Cortex
A rat cortical membrane fraction was prepared in accordance with the method of Chang, et al., Proc. Natl. Acad. Sci., U.S.A., 83, 4923 (1986). Sprague-Dawley male rats were sucrified and the brains were removed and immersed in a 50 mM Tris-HCl buffer (pH 7.4) under ice-cooling, and the cortex was dissected. Cerebral cortex was minced in the same buffer, and homogenized with Polytron. The homogenate was centrifuged at 2,500 g, and the supernatant was further centrifuged at 50,000 g. The pellet was resuspended in a reaction buffer solution (10 mM HEPES, 5 mM MgCl2, 1 mM EGTA, 130 mM NaCl; pH 6.5).
To 150 μl of the resulting rat cerebral cortex suspension were added 20 μl of ^125 I-CCK-8 sulfated (final concentration: 15 pM) and 10 μl of a test compound or a solvent (for total binding) or 1 μM CCK-8 sulfated (for nonspecific binding), and the reaction buffer solution was added there to make 1 ml. The reaction mixture was incubated at 25° C. for 120 minutes, followed by filtration through a GF/B filter (produced by Whatman). The radio-activity of the membrane fraction adsorbed onto the filter was measured with a gamma-counter.
The specific binding to CCK-B receptors was obtained from a difference between the total binding and the nonspecific binding. The IC50 of the test compound in inhibition of specific binding was calculated.

[2] = molecular target: T2, gastrin receptors (guinea pig gastric glands) (Cavia porcellus, UniProt H0VZC5); assay: Gastrin Receptor Binding Test in Guinea Pig Gastric Glands (Test Example 1); design: species or system guinea pig (Hartley, male); conditions: inhibition of specific 125I-gastrin I human binding (22.5 pM), 25° C., 45 min
T2 construct: The gastric glands were isolated from the tissue with a pipette; from tissue; host or cells: isolated gastric glands from gastric mucosa of Hartley male guinea pigs
T2 sequence (H0VZC5 1-426): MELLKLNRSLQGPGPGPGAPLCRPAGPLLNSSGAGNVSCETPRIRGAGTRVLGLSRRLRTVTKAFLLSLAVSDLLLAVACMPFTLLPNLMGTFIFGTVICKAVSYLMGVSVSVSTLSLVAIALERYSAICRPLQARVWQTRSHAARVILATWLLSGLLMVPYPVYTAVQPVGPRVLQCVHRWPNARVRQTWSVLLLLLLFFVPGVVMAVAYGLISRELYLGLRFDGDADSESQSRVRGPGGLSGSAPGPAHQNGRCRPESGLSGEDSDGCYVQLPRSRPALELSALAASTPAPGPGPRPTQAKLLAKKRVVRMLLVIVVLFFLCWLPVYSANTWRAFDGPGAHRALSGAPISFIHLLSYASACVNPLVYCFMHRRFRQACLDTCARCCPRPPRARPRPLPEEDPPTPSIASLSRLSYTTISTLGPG
Procedure: Gastrin Receptor Binding Test in Guinea Pig Gastric Glands
Preparation of Gastric Glands:
Guinea pig gastric glands were prepared according to the method of Chang, et al., Biochem. Biophys. Res. Commun., 134, 895 (1986). The gastric mucosa of a Hartley male guinea pig was peeled off. After washing, the mucosa was minced with scissors in buffer A (Eagle's MEM containing 2 mM L-glutamine and 25 mM HEPES; pH 7.4). After washing, the minced tissue was incubated in buffer A containing 0.025% collagenase, 0.01% soy bean trypsin inhibitor, and 0.1% BSA at 37° C. for 60 minutes under 95% O2 and 5% CO2. The gastric glands were isolated from the tissue with a pipette, washed twice with buffer A, and filtered through a mesh. Then, the gastric glands were obtained by centrifugation.
Guinea pig gastric glands were resuspended in buffer B (Hank's solution containing 10 mM HEPES and 0.2% BSA; pH 7.4) (10 ml of buffer B per guinea pig).
To 200 μl of the suspension containing the resuspended isolated gastric glands were added 20 μl of ^125 I-gastrin I human (final concentration: 22.5 pM). Then, 10 μl of a test compound or a solvent (for total binding) or 10 μM Pentagastrin (for nonspecific binding), and buffer B was added there to make a total volume of 1 ml. The reaction mixture was incubated at 25° C. for 45 minutes and then centrifuged at 12000 g. The supernatant was removed by suction, and the radioactivity of the isolated gastric glands was measured with a gamma-counter.
The specific binding of gastrin to gastrin receptors was obtained from a difference between the total binding and the nonspecific binding. The IC50 of the test compound in inhibition of specific binding was calculated.

CCOC(CN1C(=O)C(CC(=O)Nc2ccc(C)c(C)c2)(NC(=O)Nc2ccc(C)cc2)c2ccccc21)OCC (racemic) [Example 122, (RS)-1-(2,2-Diethoxyethyl)-3-((3,4-dimethylphenyl)aminocarbonylmethyl)-3-(N'-(4-methylphenyl)ureido)indolin-2-one]
inhibition in vivo at 10 mg/kg (gastric acid secretion): 62%
pIC50 [1]: 9.74
pIC50 [2]: 8.54

CCOC(CN1C(=O)C(CC(=O)Nc2cccc(C)c2)(NC(=O)Nc2ccc(C)cc2)c2ccccc21)OCC (racemic) [Example 111, (RS)-1-(2,2-Diethoxyethyl)-3-((3-methylphenyl)aminocarbonylmethyl)-3-(N'-(4-methylphenyl)ureido)indolin-2-one]
inhibition in vivo at 10 mg/kg (gastric acid secretion): 69%
pIC50 [1]: 9.46
pIC50 [2]: 8.29

CCOC(CN1C(=O)C(CC(=O)Nc2ccc(OC)nc2)(NC(=O)Nc2ccc(C)cc2)c2ccccc21)OCC (racemic) [Example 143, (RS)-1-(2,2-Diethoxtyethyl)-3-((2-methoxypyrido-5-yl)aminocarbonylmethyl)-3-(N'-(4-methylphenyl)ureido)indolin-2-one]
inhibition in vivo at 10 mg/kg (gastric acid secretion): 64%
pIC50 [1]: 8.72
pIC50 [2]: 8.82

Cc1ccc(NC(=O)CC2(NC(=O)Nc3ccc(C)cc3)C(=O)N(Cc3ccccn3)c3ccccc32)cc1 (racemic) [Example 65, (RS)-3-((4-Methylhenyl)aminocarbonylmethyl)-3-(N'-(4-methylphenyl)ureido)-1-(2-pyridylmethyl)indolin-2-one]
pIC50 [1]: 9.12

CCOC(CN1C(=O)C(CC(=O)Nc2ccc(C)cn2)(NC(=O)Nc2ccc(C)cc2)c2ccccc21)OCC (single isomer, unassigned; (+)) [Example 179]
inhibition in vivo at 10 mg/kg (gastric acid secretion): 63%
pIC50 [1]: 9.85
pIC50 [2]: 8.80

CCOC(CN1C(=O)C(CC(=O)Nc2ccc(N(C)C)cc2)(NC(=O)Nc2cccc(OC)c2)c2ccccc21)OCC (racemic) [Example 156]
inhibition in vivo at 10 mg/kg (gastric acid secretion): 69%
pIC50 [1]: 8.55
pIC50 [2]: 8.19

CCOC(CN1C(=O)C(CC(=O)Nc2ccc(C)cc2)(NC(=O)Nc2ccc(C)cc2)c2ccccc21)OCC (single isomer, unassigned; (+)) [Example 174, (+)-1-(2,2-Diethoxyethyl)-3-(4-methylphenyl)aminocarbonylmethyl-3-(N'-(4-methylphenyl)ureido)indolin-2-one]
inhibition in vivo at 10 mg/kg (gastric acid secretion): 70%
pIC50 [1]: 9.38
pIC50 [2]: 9.27

CCOC(CN1C(=O)C(CC(=O)Nc2ccc(C)cn2)(NC(=O)Nc2cccc(OC)c2)c2ccccc21)OCC (single isomer, unassigned; (+)) [Example 190, (+)-1-(2,2-Diethoxyethyl)-3-(N'-(3-methoxyphenyl)ureido)-3-((5-methylpyrido-2-yl)aminocarbonylmethyl)indolin-2-one]
inhibition in vivo at 10 mg/kg (gastric acid secretion): 70%
pIC50 [1]: 10.00
pIC50 [2]: 9.17

CCOC(CN1C(=O)C(CC(=O)Nc2cccc(OC)c2)(NC(=O)Nc2ccc(C)cc2)c2ccccc21)OCC (racemic) [Example 129, (RS)-1-(2,2-Diethoxyethyl)-3-((3-methoxyphenyl)aminocarbonylmethyl)-3-(N'-(4-methylphenyl)ureido)indolin-2-one]
inhibition in vivo at 10 mg/kg (gastric acid secretion): 71%
pIC50 [1]: 9.41
pIC50 [2]: 8.44

Cc1ccc(NC(=O)CC2(NC(=O)Nc3ccc(C)cc3)C(=O)N(Cc3ccccc3)c3ccccc32)cc1 (racemic) [Example 62, (RS)-1-Benzyl-3-((4-methylphenyl)aminocarbonylmethyl)-3-(N'-(4-methylphenyl)ureido)indolin-2-one]
pIC50 [1]: 8.92

CCOC(CN1C(=O)C(CC(=O)Nc2ccc(C)cc2)(NC(=O)Nc2ccc(C#N)cc2)c2ccccc21)OCC (racemic) [Example 92, (RS)-3-(N'-(4-Cyanophenyl)ureido)-1-(2,2-diethoxyethyl)-3-((4-methylphenyl)aminocarbonylmethyl)indolin-2-one]
inhibition in vivo at 10 mg/kg (gastric acid secretion): 57%
pIC50 [1]: 9.05
pIC50 [2]: 8.37

CCOC(CN1C(=O)C(CC(=O)Nc2ccc(C)cn2)(NC(=O)Nc2cccc(OC)c2)c2ccccc21)OCC (racemic) [Example 158, (RS)-1-(2,2-Diethoxyethyl)-3-(N'-(3-methoxyphenyl)ureido)-3-((5-methylpyrido-2-yl)aminocarbonylmethyl)indolin-2-one]
inhibition in vivo at 10 mg/kg (gastric acid secretion): 66%
pIC50 [1]: 9.25
pIC50 [2]: 8.85

Cc1ccc(NC(=O)CC2(NC(=O)Nc3ccc(C)cc3)C(=O)N(CCc3ccccc3)c3ccccc32)cc1 (racemic) [Example 66, (RS)-3-((4-Methylphenyl)aminocarbonylmethyl)-3-(N'-(4-methylphenyl)ureido)-1-(2-phenylethyl)indolin-2-one]
pIC50 [1]: 9.12

CCOC(CN1C(=O)C(NC(=O)Nc2ccc(C)cc2)(NC(=O)Nc2ccc(C)cc2)c2ccccc21)OC (racemic) [Example 7, (RS)-1-(2-Ethoxy-2-methoxyethyl)-3,3-bis(N'-(4-methylphenyl)ureido)indolin-2-one]
pIC50 [1]: 10.15

CCOC(CN1C(=O)C(CC(=O)Nc2ccc(OC)cc2)(NC(=O)Nc2cccc(OC)c2)c2ccccc21)OCC (racemic) [Example 148, (RS)-1-(2,2-Diethoxyethyl)-3-((4-methoxyphenyl)aminocarbonylmethyl)-3-(N'-(3-methoxyphenyl)ureido)indolin-2-one]
inhibition in vivo at 10 mg/kg (gastric acid secretion): 63%
pIC50 [2]: 8.96

CCOC(CN1C(=O)C(CC(=O)Nc2cccc(C)c2)(NC(=O)Nc2cccc(OC)c2)c2ccccc21)OCC (racemic) [Example 152, (RS)-1-(2,2-Diethoxyethyl)-3-(N'-(3-methoxyphenyl)ureido)-3-((3-methylphenyl)aminocarbonylmethyl)indolin-2-one]
inhibition in vivo at 10 mg/kg (gastric acid secretion): 64%
pIC50 [2]: 8.68
